The subject of this assay is Caco-2 cells. Kind of assay: Cellular 55Fe uptake and transfer across Caco-2 monolayers with bacterial suspensions. It counts as cell-based. The method, then:
Caco-2 cells were obtained from the American Type Culture Collection (Rockville, Md.) at passage 17 and used for experiments at passages 20-35. Stock cultures were maintained in Dulbecco's modified […] medium (DMEM) supplemented with 20% (v/v) fetal calf serum (FSC), […] penicillin G, and 100 mg/L streptomycin at 37° C. in a huminified atmosphere of 95% air-5% CO2. The growth medium was changed every second to third day. Cells were split at ˜80% confluence using 0.5 g/L trypsin with 0.5 mmol/L EDTA in Dulbecco's phosphate buffered saline (PBS). […]
Lactobacillus plantarum 299v (DSM9843), (5), Lactobacillus plantarum 299, (1), Lactobacillus plantarum Heal 9 (DSM 15312), (2), Lactobacillus plantarum Heal 19 (DSM15313), (4), Lactobacillus plantarum 299v mutant (AMJ1277), (3) and Lactobacillus reuteri, (6) were cultured in MRS broth at a rotary shaker (37° C., 200 rpm). […] The volume of cell culture corresponding to a certain cell-number was calculated from a predetermined standard curve. […]
Fresh supplemented DMEM was provided to the cells 1 day prior to the uptake and transfer assays. […] After 2 h incubation, the cells were washed four times with ice-cold wash buffer (150 mmol/L NaCl, 10 mmol/L HEPES, 1 mmol/L EDTA, pH7) and homogenized in 0.5M NaOH. ^55Fe transferred to the basolateral chamber or associated with the Caco-2 lysates was measured by liquid scintillation counting. […]

The record followed here is patent US10105403B2, “Methods of treating iron deficiency to prevent iron-deficiency anemia by administration of Lactobacillus plantarum” (Probi AB, priority 2005, dated 2018).

In turn, Lactobacillus reuteri gave a Transport % (FeCl3 10 μmol/l in HBSS/HEPES, 55Fe traced, 2 h incubation, 6.7×10^7 cells/ml (Lactobacillus reuteri 3.35×10^7 cells/ml), control without bacteria 0.06) of 0.11%. Also, the “Effect on Fe transport (in words)” value (FeCl3 10 μmol/l, Caco-2 monolayers, compared to neat Fe solution) is given as “an increase of the transport is seen, but not comparable with the different Lactobacillus plantarum strains”.
